Laboratory results: ChEMBL document CHEMBL5346941, “Design, synthesis and evaluation of novel monoamine oxidase B (MAO-B) inhibitors with improved pharmacokinetic properties for Parkinson's disease” (Eur J Med Chem, 2023)
Activity calls are given as the source filed them. The rule behind the calls is not given here.

Columns and labels:
[1] = Metabolic stability in rat liver microsomes assessed as intrinsic clearance at 1 uM incubated for 60 mins in presence of NADPH by LC-MS/MS analysis; type: ADME, Microsome; settings: read-out: CLH
[2] = Apparent permeability across apical to basolateral side in MDCKII-MDR1 cells at 10 uM incubated for 30 mins by LC-MS/MS analysis; type: ADME, cell-based, Canis lupus familiaris; settings: dog, MDCK-MDR1
[3] = Elimination half life in fasted ICR mouse at 5 mg/kg, IG measured for 24 hrs; type: ADME, organism-based; settings: in vivo, po, read-out: beta t1/2 (converted)
CYP2C8 = target: T1, CYP2C8 (Homo sapiens, UniProt P10632); assay: Inhibition of CYP2C8 in human liver microsomes using amodiaquine as substrate at 10 uM incubated for 45 mins in presence of NADPH by LC-MS/MS analysis relative to control; type: ADME, Microsome; settings: probe amodiaquine
T1 sequence (P10632 whole entry): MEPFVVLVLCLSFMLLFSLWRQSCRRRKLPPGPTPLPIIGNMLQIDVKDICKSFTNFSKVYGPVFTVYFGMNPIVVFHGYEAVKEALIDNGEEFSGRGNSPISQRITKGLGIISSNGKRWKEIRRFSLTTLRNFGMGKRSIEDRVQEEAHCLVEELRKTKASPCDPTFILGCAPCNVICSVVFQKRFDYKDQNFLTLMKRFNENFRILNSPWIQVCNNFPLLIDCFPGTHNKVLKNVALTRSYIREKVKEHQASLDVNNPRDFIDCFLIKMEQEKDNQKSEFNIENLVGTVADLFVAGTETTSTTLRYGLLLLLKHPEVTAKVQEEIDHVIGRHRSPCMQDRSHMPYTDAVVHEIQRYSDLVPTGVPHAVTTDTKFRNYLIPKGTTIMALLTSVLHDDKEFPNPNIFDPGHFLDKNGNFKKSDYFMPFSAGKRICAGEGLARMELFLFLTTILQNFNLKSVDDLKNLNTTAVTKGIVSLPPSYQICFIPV

[4] = Metabolic stability in monkey liver microsomes assessed as half life at 1 uM incubated for 60 mins in presence of NADPH by LC-MS/MS analysis; type: ADME, Macaca mulatta, Microsome; settings: rhesus monkey
[5] = Metabolic stability in mouse liver microsomes assessed as half life at 1 uM incubated for 60 mins in presence of NADPH by LC-MS/MS analysis; type: ADME, Microsome
[6] = AUC (0 to t) in fasted Sprague-Dawley rat at 1 mg/kg, iv measured for 24 hrs; type: ADME, organism-based; design: dose 1 mg/kg, time 24 hrs, route iv; settings: in vivo
[7] = target: T2, Amine oxidase [flavin-containing] B (Homo sapiens, UniProt P27338); assay: Inhibition of recombinant human MAO-B expressed in Sf9 cells using p-tyramine as substrate preincubated for 15 mins followed by substrate addition and measured after 60 mins by luciferin based luminescence analysis
T2 sequence (P27338 whole entry): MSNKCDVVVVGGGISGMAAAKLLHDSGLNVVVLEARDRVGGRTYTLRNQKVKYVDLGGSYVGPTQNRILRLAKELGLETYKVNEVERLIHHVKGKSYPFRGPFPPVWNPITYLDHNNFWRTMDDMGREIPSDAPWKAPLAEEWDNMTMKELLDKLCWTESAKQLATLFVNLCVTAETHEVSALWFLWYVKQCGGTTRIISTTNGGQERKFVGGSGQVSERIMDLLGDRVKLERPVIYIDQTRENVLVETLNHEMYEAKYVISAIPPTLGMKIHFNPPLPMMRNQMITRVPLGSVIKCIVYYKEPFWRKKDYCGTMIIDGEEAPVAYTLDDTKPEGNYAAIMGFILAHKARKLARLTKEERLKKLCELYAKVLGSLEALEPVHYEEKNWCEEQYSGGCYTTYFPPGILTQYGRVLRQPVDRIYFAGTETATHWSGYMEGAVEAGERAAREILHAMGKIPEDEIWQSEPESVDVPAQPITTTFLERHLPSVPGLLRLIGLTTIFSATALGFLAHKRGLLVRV

[8] = Metabolic stability in human liver microsomes assessed as half life at 1 uM incubated for 60 mins in presence of NADPH by LC-MS/MS analysis; type: ADME, Microsome
[9] = target: T3, Amine oxidase [flavin-containing] A (Homo sapiens, UniProt P21397); assay: Inhibition of recombinant human MAO-A expressed in Sf9 cells using […] as substrate preincubated for 15 mins followed by substrate addition and measured after 60 mins by luciferin based luminescence analysis
T3 sequence (P21397 whole entry): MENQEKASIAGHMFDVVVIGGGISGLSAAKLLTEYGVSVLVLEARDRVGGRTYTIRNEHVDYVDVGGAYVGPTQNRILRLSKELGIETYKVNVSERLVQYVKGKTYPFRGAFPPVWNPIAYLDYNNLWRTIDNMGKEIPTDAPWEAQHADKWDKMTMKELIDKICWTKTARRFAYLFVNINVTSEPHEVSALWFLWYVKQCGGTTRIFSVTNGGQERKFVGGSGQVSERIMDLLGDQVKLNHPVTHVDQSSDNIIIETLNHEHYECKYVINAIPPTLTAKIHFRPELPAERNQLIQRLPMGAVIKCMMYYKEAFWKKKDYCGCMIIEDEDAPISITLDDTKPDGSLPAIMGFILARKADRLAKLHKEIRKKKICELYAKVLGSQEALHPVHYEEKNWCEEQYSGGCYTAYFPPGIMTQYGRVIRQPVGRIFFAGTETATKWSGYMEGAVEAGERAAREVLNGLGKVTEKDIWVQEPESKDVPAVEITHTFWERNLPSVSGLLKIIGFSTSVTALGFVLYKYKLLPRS

[10] = Ratio of drug concentration in Sprague-Dawley brain to plasma at 5 mg/kg, ip measured after 60 mins by LC-MS/MS analysis; type: ADME, organism-based; settings: rat, read-out: BPR
[11] = Metabolic stability in dog liver microsomes assessed as intrinsic clearance at 1 uM incubated for 60 mins in presence of NADPH by LC-MS/MS analysis; type: ADME, Canis lupus familiaris, Microsome; settings: read-out: CLH
[12] = Protein binding in mouse plasma at 1 uM incubated for 5 hrs by LC-MS/MS based rapid equilibrium dialysis method; type: ADME, cell-free; settings: read-out: PPB (converted)
Mus musculus [13] = assay: Anti-parkinson activity in C57BL/6 mouse model of MPTP-induced dopamine deficits assessed as increase in dopamine concentration in striatum at 1 to 3 mg/kg, ip pretreated for 30 mins followed by MPTP addition and measured after 5 days by HPLC analysis; type: functional, organism-based; settings: dose 1-3 mg/kg, time 120.5 hrs
[14] = Metabolic stability in dog liver microsomes assessed as half life at 1 uM incubated for 60 mins in presence of NADPH by LC-MS/MS analysis; type: ADME, Canis lupus familiaris, Microsome
[15] = Volume of distribution at steady state in fasted ICR mouse at 2 mg/kg, iv measured for 24 hrs; type: ADME, organism-based; settings: in vivo, read-out: Vdss
[16] = Bioavailability in fasted ICR mouse at 5 mg/kg, IG measured for 24 hrs; type: ADME, organism-based; settings: in vivo, po
Mus musculus [17] = assay: Anti-parkinson activity in MPTP-induced dopamine deficit C57BL/6 mouse model assessed as increase in dopamine concentration in striatum at 3 to 10 mg/kg, ip pretreated with MPTP for 4 hrs followed by compound administration for 5 times once every 4 hrs further incubated with benserazide at 12.5 mg/kg for 30 mins prior to last dose and measured after 30 mins by HPLC analysis; type: functional, organism-based; settings: dose 3-10 mg/kg, time 16.5 hrs
Mus musculus [18] = assay: In vivo inhibition of MAO-B in ICR mouse assessed as reduction in enzyme activity in brain at 2 mg/kg, ip administered once for 30 to 60 mins by amplex red based assay; type: functional, organism-based; settings: time 30-60 min

CLint scaled at 1 µM [1]: 10.1 mL/min/kg
Papp A→B at 0.5 h, 10 µM [2]: 8.78 ×10⁻⁶ cm/s
half-life [3]: 3.8 h
inhibition at 0.75 h, 10 µM (CYP2C8): 5.74%
half-life at 1 µM [4]: 5.63 h
half-life at 1 µM [5]: 2.82 h
AUC(0-t) at 24 h [6]: 305 ng·h/mL
IC50 [7]: 37 nM
half-life at 1 µM [8]: 10.4 h
IC50 [9]: > 10000 nM
Kp at 1 h [10]: 16.2
CLint scaled at 1 µM [11]: 7.5 mL/min/kg
fraction unbound at 5 h, 1 µM [12]: 0.0066
half-life at 1 µM [14]: 2.45 h
Vd [15]: 2.72 L/kg
bioavailability [16]: 105%
SMILES: NC(=O)[C@@H]1C[C@H](F)CN1Cc1ccc2oc(-c3ccc(F)cc3)cc2c1
Activity (Mus musculus [13]): Active
Activity (Mus musculus [17]): Active
inhibition (Mus musculus [18]): Active
